Read-outs that look alike come from different tables or passages of the source.
What was measured:
CDK4 = CDK4 (Homo sapiens, UniProt P11802); assay: CDK4 HTRF; assay type: biochemical
CDK2 cyA = CDK2 cyA (Homo sapiens, UniProt P24941); assay: CDK2 cyA IMAP; assay type: biochemical
hCDK1/B = hCDK1/B (Homo sapiens, UniProt P06493); assay: hCDK1/B; assay type: biochemical
p-pRb/S780 = p-pRb/S780 ELISA Cellular Assay (CDK4 ELISA assay); assay type: cell-based; conditions: cells treated for 24 hrs
Procedure: Biological Activity p-pRb/S780 ELISA Cellular Assay
Maxisorp plates (Nunc 442404) are coated with 50 ul of 1 ug/mL total phospholated Retinoblast Protein (pRb) antibody (4H1 Cell Signaling 9309L) diluted in DPBS (Phosphate Buffered Saline) overnight at 4° C. The next day plates are blocked with Superblock in TBST (Pierce 37535) for one hour to overnight—changing block once during that time. Cells are plated at 50-60% confluency in a 96 well plate (Corning 3585) in 100 uL complete media (media containing fetal bovine serum (Gibco 1600-044), 2 mM L-Glutamine (Gibco 25030), and 1% Penicillin/Streptomycin (Gibco 15140-122) and grown overnight in a humidified chamber at 37° C. and 5% CO2. Compounds (in DMSO) are diluted in media to create a 7 point dilution series of compound with concentrations ranging from 110 uM to 0.027 uM. 10 ul of the diluted compounds are added to the cells, with final concentrations on cells ranging from 10 uM to 0.002 uM. Cells are treated for 24 hrs in a humidified chamber at 37° C. and 5% CO2. Following compound incubation, cells are lysed with 40 uL/well lysis buffer (50 mM Tris-HCL pH 7.5 (Invitrogen 15567-027), 120 mM NaCl (Promega V4221), 1 mM EDTA (Gibco 15575-038), 6 mM EGTA (Fisher 02783-100), 1% Nonidet P40 (Fluka R02771). Plates are placed on Titerplate shaker (Labline model 4625) for 5 minutes at 4° C. to lyse cells. After lysis, 10 ul of cell lysate and 50 ul 1×PBS/10% Superblock (Gibco 10010 and Pierce 37535) is added to each well of the precoated and blocked Maxisorp plate and allowed to bind at room temperature for 2 hours on Oribtron Rotator II (Boekel Industries Model 260250). Plates are then washed 3× with 1×TBST (Teknova T9201) using Biotek platewasher equipped with a Biostack. The final wash is not aspirated. The final wash is removed by flicking off and tapping plate on paper towels. ppRbS780 antibody (Cell Signaling 9307L) is diluted 1:1000 in 1×PBS/10% Superblock (Gibco 10010 and Pierce 37535) and 50 ul is added to each well. Plates are then incubated 1 hour on Oribtron Rotator II (Boekel Industries Model 260250). Plates are then washed as previously described. Goat anti-rabbit HRP (Promega W401B) is diluted 1:2500 1×PBS/10% Superblock (Gibco 10010 and Pierce 37535) and 50 ul is added to each well. Plates are then incubated 30 minutes on Oribtron Rotator II. Plates are then washed as previously described. 50 uL Ultra TMB ELISA (Pierce 34028) is then added to each well. Plates are incubated 5-20 minutes until blue color develops. 50 ul 2M Sulfuric acid (Mallinckrodt 2468-46) is then added to each well to stop the reaction. Absorbance at 450 nm for each plate is read on Spectramax Plus (Molecular Devices).

[1] = Table 2, read-out: CDK4 HTRF/ IC50
[2] = Table 2, read-out: CDK2cyA IMAP/ IC50
[3] = Table 2, read-out: p_pRb Cap EL/ IC50_ppRbinh
[4] = Table 1, read-out: CDK2 cyA IMAP

Chain of CDK4 (P11802 whole entry): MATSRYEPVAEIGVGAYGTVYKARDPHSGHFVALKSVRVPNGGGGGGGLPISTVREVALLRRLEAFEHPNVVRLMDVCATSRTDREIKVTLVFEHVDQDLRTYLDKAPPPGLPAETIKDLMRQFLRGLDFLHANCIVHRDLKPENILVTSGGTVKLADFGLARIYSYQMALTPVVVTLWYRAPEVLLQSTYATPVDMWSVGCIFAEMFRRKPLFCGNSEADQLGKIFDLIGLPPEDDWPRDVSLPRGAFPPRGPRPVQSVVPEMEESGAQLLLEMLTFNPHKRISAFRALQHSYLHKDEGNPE
Chain of CDK4 (P24385 whole entry partner): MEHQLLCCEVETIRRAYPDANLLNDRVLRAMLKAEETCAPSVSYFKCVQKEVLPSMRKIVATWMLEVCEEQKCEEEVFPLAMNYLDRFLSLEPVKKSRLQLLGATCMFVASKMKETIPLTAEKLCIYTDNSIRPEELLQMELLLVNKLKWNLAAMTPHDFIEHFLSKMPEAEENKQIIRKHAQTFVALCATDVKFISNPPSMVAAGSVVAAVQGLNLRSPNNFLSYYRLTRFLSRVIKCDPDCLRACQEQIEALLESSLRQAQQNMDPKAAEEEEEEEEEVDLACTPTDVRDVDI
Chain of hCDK1/B (P06493 whole entry): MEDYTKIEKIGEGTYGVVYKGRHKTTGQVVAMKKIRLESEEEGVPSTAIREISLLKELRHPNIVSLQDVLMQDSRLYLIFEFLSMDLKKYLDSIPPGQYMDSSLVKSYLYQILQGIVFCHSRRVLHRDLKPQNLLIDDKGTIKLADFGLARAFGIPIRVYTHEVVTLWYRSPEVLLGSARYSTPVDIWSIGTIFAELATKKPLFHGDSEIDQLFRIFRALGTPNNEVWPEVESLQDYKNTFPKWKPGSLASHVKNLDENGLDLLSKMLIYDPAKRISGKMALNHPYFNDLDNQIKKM
Chain of hCDK1/B (P14635 whole entry partner): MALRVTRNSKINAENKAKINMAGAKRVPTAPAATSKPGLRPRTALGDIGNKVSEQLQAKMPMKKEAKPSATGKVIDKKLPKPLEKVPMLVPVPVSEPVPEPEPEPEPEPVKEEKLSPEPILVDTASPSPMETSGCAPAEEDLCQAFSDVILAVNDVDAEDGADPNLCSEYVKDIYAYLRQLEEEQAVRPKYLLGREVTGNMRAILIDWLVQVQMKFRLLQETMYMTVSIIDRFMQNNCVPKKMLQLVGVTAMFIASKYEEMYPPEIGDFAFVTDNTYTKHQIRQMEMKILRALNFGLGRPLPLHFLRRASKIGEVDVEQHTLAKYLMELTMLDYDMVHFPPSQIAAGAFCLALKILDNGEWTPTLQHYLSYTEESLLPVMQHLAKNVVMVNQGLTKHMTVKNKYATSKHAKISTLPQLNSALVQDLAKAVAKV

Row | Structure (SMILES) | IC50 (CDK4; [1]) [µM] | IC50 (CDK2 cyA; [2]) [µM] | IC50 (hCDK1/B; Table 2) [µM] | IC50 (p-pRb/S780; [3]) [µM] | IC50 (CDK4; Table 1, read-out: CDK4 HTRF) [µM] | IC50 (CDK2 cyA; [4]) [µM] | IC50 (hCDK1/B; Table 1) [µM] | IC50 (p-pRb/S780; Table 1, read-out: CDK4 ELISA assay IC50) [µM]
1 | CC(C)c1[nH]ncc1-c1ccnc(NCc2ccncc2)c1 [Example 22] |  |  |  |  | < 5 | < 5 | < 5 | < 0.5
2 | Cc1n[nH]cc1-c1ccnc(NCC2CCCO2)n1 (stereo not drawn) [Example 88] | < 15 | ≥ 15 | < 15 | < 15 |  |  |  | 
3 | COCCCNc1cc(-c2cn[nH]c2C(C)C)ccn1 [Example 11] |  |  |  |  | < 1 | < 5 | < 5 | 
4 | COCC(C)Nc1nccc(-c2c[nH]nc2C(C)C)n1 (stereo not drawn) [Example 152] | < 0.5 | < 1 | < 1 |  |  |  |  | 
5 | CCC(C)Nc1nccc(-c2c[nH]nc2C(C)C)n1 (stereo not drawn) [Example 171] | < 0.05 | < 0.5 | < 0.5 |  |  |  |  | 
6 | CC(C)c1[nH]ncc1-c1ccnc(NCc2ccccc2C(F)(F)F)c1 [Example 50] |  |  |  |  | < 1 | < 5 | < 5 | 
7 | c1ccc2c(c1)CCC2Nc1cc(-c2cn[nH]c2C2CC2)ccn1 (stereo not drawn) [Example 70] |  |  |  |  | < 0.5 | < 5 | < 5 | 
8 | CCC(CC)c1[nH]ncc1-c1ccnc(NC2CCN(C(=O)OC(C)(C)C)CC2)c1 [Example 72] |  |  |  |  | < 1 | < 5 | < 1 | 
9 | Cc1nnc(CCNc2nccc(-c3c[nH]nc3C(C)C)n2)[nH]1 [Example 161] | < 0.5 | < 5 | < 5 |  |  |  |  | 
10 | CC(C)c1[nH]ncc1-c1ccnc(NCC2CCCO2)c1 (stereo not drawn) [Example 13] |  |  |  |  | < 5 | < 10 | < 5 | 
11 | CC(CCc1ccccc1)Nc1nccc(-c2c[nH]nc2C(C)C)n1 (stereo not drawn) [Example 155] | < 1 | < 5 | < 5 |  |  |  |  | 
12 | Cc1n[nH]cc1-c1ccnc(NC2CCCC2)n1 [Example 86] | < 1 | < 5 | < 5 |  |  |  |  | 
13 | Cc1n[nH]cc1-c1ccnc(NC2CCCCC2)n1 [Example 84] | < 1 | < 5 | < 5 |  |  |  |  | 
14 | CC(C)c1n[nH]cc1-c1ccnc(N[C@@H](C)c2ccccc2)n1 [Example 182] | < 10 | < 10 | < 5 |  |  |  |  | 
15 | CC(C)c1[nH]ncc1-c1ccnc(NC2CCCCC2)c1 [Example 7] |  |  |  |  | < 0.5 | < 0.5 | < 1 | 
16 | Cc1ccccc1CNc1cc(-c2cn[nH]c2C(C)(C)C)ccn1 [Example 76] |  |  |  |  | < 10 | ≥ 15 | < 15 | 

Row | Structure (SMILES) | IC50 (CDK4; [1]) [µM] | IC50 (CDK2 cyA; [2]) [µM] | IC50 (hCDK1/B; Table 2) [µM] | IC50 (p-pRb/S780; [3]) [µM] | IC50 (CDK4; Table 1, read-out: CDK4 HTRF) [µM] | IC50 (CDK2 cyA; [4]) [µM] | IC50 (hCDK1/B; Table 1) [µM] | IC50 (p-pRb/S780; Table 1, read-out: CDK4 ELISA assay IC50) [µM]
17 | CC(C)c1[nH]ncc1-c1ccnc(NC2CCCCCC2)c1 [Example 40] |  |  |  |  | < 0.5 | < 0.5 | < 1 | 
18 | Cc1cnc(NC2CCN(C)CC2)nc1-c1c[nH]nc1C(C)C [Example 184] | < 0.5 | < 5 | < 5 |  |  |  |  | 
19 | CC(C)c1n[nH]cc1-c1ccnc(NCc2ccccc2F)n1 [Example 165] | < 1 | < 0.5 | < 0.5 |  |  |  |  | 
20 | CC(C)(C)c1[nH]ncc1-c1ccnc(NC2CCc3ccccc32)c1 (stereo not drawn) [Example 75] |  |  |  |  | < 15 | ≥ 15 | ≥ 15 | 
21 | Cc1ccccc1CNc1nccc(-c2c[nH]nc2C(C)C)n1 [Example 164] | < 0.5 | < 1 | < 0.5 |  |  |  |  | 
22 | CC(C)c1n[nH]cc1-c1ccnc(NCCCN(C)C)n1 [Example 167] | < 1 | < 10 | < 5 |  |  |  |  | 
23 | CN1CCC(Nc2cc(-c3cn[nH]c3C(C)(C)C)ccn2)CC1 [Example 77] |  |  |  |  | < 15 | < 15 | ≥ 15 | 
24 | c1ccc(CCNc2cc(-c3cn[nH]c3C3CCCC3)ccn2)cc1 [Example 58] |  |  |  |  | < 0.5 | < 5 | < 5 | 
25 | CCCNc1cc(-c2cn[nH]c2C(C)C)ccn1 [Example 44] |  |  |  |  | < 0.5 | < 5 | < 5 | 
26 | CC(C)c1n[nH]cc1-c1ccnc(NC(C)c2ccccc2)n1 (stereo not drawn) [Example 168] | < 0.05 | < 5 | < 1 |  |  |  |  | 
27 | c1cc(-c2cn[nH]c2C2CCCC2)cc(NCC2CC2)n1 [Example 57] |  |  |  |  | < 1 | < 5 | < 5 | 
28 | c1cc(-c2cn[nH]c2C2CCCC2)cc(NC2CCCC2)n1 [Example 3] |  |  |  |  | < 0.5 | < 0.5 | < 1 | 
29 | Cc1n[nH]cc1-c1ccnc(NC2Cc3ccccc3C2)n1 [Example 125] | < 0.5 | < 5 | < 5 |  |  |  |  | 
30 | Cc1n[nH]cc1-c1ccnc(NCC(C)C)n1 [Example 92] | < 5 | < 5 | < 5 |  |  |  |  | 
31 | CC(C)CCNc1cc(-c2cn[nH]c2C(C)C)ccn1 [Example 12] |  |  |  |  | < 1 | < 5 | < 5 | 
32 | c1cc(-c2cn[nH]c2C2CCCC2)cc(NC2CC2)n1 [Example 53] |  |  |  |  | < 0.5 | < 1 | < 5 | 

The next lines start with the values.

Row | IC50 (CDK4; [1]) [µM] | IC50 (CDK2 cyA; [2]) [µM] | IC50 (hCDK1/B; Table 2) [µM] | IC50 (p-pRb/S780; [3]) [µM] | IC50 (CDK4; Table 1, read-out: CDK4 HTRF) [µM] | IC50 (CDK2 cyA; [4]) [µM] | IC50 (hCDK1/B; Table 1) [µM] | IC50 (p-pRb/S780; Table 1, read-out: CDK4 ELISA assay IC50) [µM] | Structure (SMILES)
33 | < 0.1 | < 0.1 | < 0.5 | < 5 |  |  |  |  | CC(C)CNc1nccc(-c2c[nH]nc2C(C)C)n1 [Example 163]
34 | < 5 | ≥ 15 | < 15 | < 15 |  |  |  |  | COCCCNc1nccc(-c2c[nH]nc2C)n1 [Example 108]
35 | < 10 | ≥ 15 | ≥ 15 | < 15 |  |  |  |  | Cc1n[nH]cc1-c1ccnc(NCc2ccco2)n1 [Example 122]
36 | < 0.1 | < 5 | < 5 | < 1 |  |  |  |  | CC(C)c1n[nH]c(Br)c1-c1ccnc(NC2CCN(C)CC2)n1 [Example 179]
37 |  |  |  |  | < 1 | < 5 | < 5 |  | CC(C)c1[nH]ncc1-c1ccnc(NCc2cc(F)cc(F)c2)c1 [Example 38]
38 | < 5 | < 10 | < 10 |  |  |  |  |  | Cc1ccccc1CNc1nccc(-c2c[nH]nc2C)n1 [Example 137]
39 |  |  |  |  | < 5 | ≥ 15 | ≥ 15 |  | CC(C)c1[nH]ncc1-c1ccnc(NCCCCN(C)C)c1 [Example 18]
40 | < 0.5 | < 5 | < 5 |  |  |  |  |  | CC(C)c1nn(C)cc1-c1ccnc(NC2CCN(C)CC2)n1 [Example 181]
41 |  |  |  |  | < 5 | < 1 | < 0.5 |  | CC(C)c1[nH]ncc1-c1ccnc(NCCCn2ccnc2)c1 [Example 41]
42 |  |  |  |  | < 0.5 | < 5 | < 5 |  | CC(C)c1[nH]ncc1-c1ccnc(NC2CCc3ccccc32)c1 (stereo not drawn) [Example 43]
43 | < 1 | < 10 | < 10 |  |  |  |  |  | Cc1n[nH]cc1-c1ccnc(NC2CCN(Cc3ccccc3)C2)n1 (stereo not drawn) [Example 114]
44 |  |  |  |  | < 0.1 | < 1 | < 1 |  | c1ccc2c(c1)CC(Nc1cc(-c3cn[nH]c3C3CC3)ccn1)C2 [Example 69]
45 |  |  |  |  | < 5 | < 5 | < 5 |  | CC(C)c1[nH]ncc1-c1ccnc(NCC2CCCCC2)c1 [Example 6]
46 |  |  |  |  | < 1 | < 5 | < 10 |  | CC(C)c1[nH]ncc1-c1ccnc(NCCc2ccccn2)c1 [Example 29]
47 | < 0.05 | < 1 | < 0.5 |  |  |  |  |  | CC(C)c1n[nH]cc1-c1ccnc(NC2CCN(C(=O)OC(C)(C)C)CC2)n1 [Example 140]
48 |  |  |  |  | < 0.5 | < 1 | < 5 |  | CC(C)c1[nH]ncc1-c1ccnc(NCCc2ccccc2)c1 [Example 37]
49 |  |  |  |  | < 5 | < 5 | < 5 |  | CCC(CC)c1[nH]ncc1-c1ccnc(NC2CCc3ccccc32)c1 (stereo not drawn) [Example 74]
50 | < 0.5 | < 5 | < 1 |  |  |  |  |  | CC(C)COCCCNc1nccc(-c2c[nH]nc2C(C)C)n1 [Example 150]

Reference: patent US8367687B2, “Pyrazole derivatives” (Novartis AG, priority 2007, dated 2013)
